Results: patent publication EP4635500A1, “THERAPEUTIC AGENT FOR BACTERIAL INFECTION” (Sumitomo Pharma Co., Ltd., priority 2022, dated 2024)
≈ marks a conversion by molar mass, not a printed value. Like-named read-outs stand apart in the source and are kept apart here.

Legend:
[1] = tested on: Enterobacterales; assay: MIC, broth microdilution, CDC/FDA Antibiotic Resistance Isolate Bank (Example 7, Tables 8, 11, 12); type: cell-based; conditions: carbapenemase-producing Enterobacterales, read-out: MIC90
[2] = tested on: A. baumannii; assay: MIC, broth microdilution, CDC/FDA Antibiotic Resistance Isolate Bank (Example 7, Tables 9, 13, 14); type: cell-based, Acinetobacter baumannii; conditions: for MIC: read-out: MIC

`CO/N=C(\C(=O)N[C@@H]1C(=O)N2C(C(=O)[O-])=C(C[n+]3ccn4ncccc43)CS[C@H]12)c1nsc(N)n1` [Cefozopran, cefozopran] gave an MIC90 ([1]; Metallo-β-lactamase (N = 47)) of over 64 µg/mL, an MIC90 ([1]; Serine carbapenemase (N=61)) of over 64 µg/mL and an MIC ([2]; Acinetobacter baumannii, A. baumannii KUB No. 5567, AR Bank #70, OXA-58, OXA-100) of 2 µg/mL (≈ 3.88 µM). It also gave an MIC ([2]; Acinetobacter baumannii, A. baumannii KUB No. 5575, AR Bank #78, OXA-71) of over 64 µg/mL, an MIC ([2]; Acinetobacter baumannii, A. baumannii KUB No. 5580, AR Bank #83, OXA-23, OXA-69, NDM-1) of over 64 µg/mL and an MIC ([2]; Acinetobacter baumannii, A. baumannii KUB No. 5585, AR Bank #88, OXA-64, NDM-1) of over 64 µg/mL. For the same compound, the MIC ([2]; Acinetobacter baumannii, A. baumannii KUB No. 5598, AR Bank #101, OXA-24, OXA-65) was 32 µg/mL (≈ 62.1 µM), the MIC ([2]; Acinetobacter baumannii, A. baumannii KUB No. 5599, AR Bank #102, OXA-66) was 8 µg/mL (≈ 15.5 µM) and the MIC ([2]; Acinetobacter baumannii, A. baumannii KUB No. 5706, AR Bank #273, OXA-23, OXA-66) was 64 µg/mL (≈ 124 µM). For the same compound, the MIC ([2]; Acinetobacter baumannii, A. baumannii KUB No. 5707, AR Bank #274, OXA-66, OXA-72) was 16 µg/mL (≈ 31 µM), the MIC ([2]; Acinetobacter baumannii, A. baumannii KUB No. 5708, AR Bank #275, OXA-23, OXA-66) was 64 µg/mL (≈ 124 µM) and the MIC ([2]; Acinetobacter baumannii, A. baumannii KUB No. 5709, AR Bank #276, no carbapenemase genes (-)) was over 64 µg/mL. The MIC ([2]; Acinetobacter baumannii, A. baumannii KUB No. 5710, AR Bank #277, OXA-24, OXA-65) was 64 µg/mL (≈ 124 µM), the MIC ([2]; Acinetobacter baumannii, A. baumannii KUB No. 5711, AR Bank #278, OXA-23, OXA-66) was 64 µg/mL (≈ 124 µM) and the MIC ([2]; Acinetobacter baumannii, A. baumannii KUB No. 5712, AR Bank #279, OXA-23, OXA-66) was 64 µg/mL (≈ 124 µM). For the same compound, the MIC ([2]; Acinetobacter baumannii, A. baumannii KUB No. 5713, AR Bank #280, OXA-66) was 8 µg/mL (≈ 15.5 µM), the MIC ([2]; Acinetobacter baumannii, A. baumannii KUB No. 5714, AR Bank #281, OXA-82) was 8 µg/mL (≈ 15.5 µM) and the MIC ([2]; Acinetobacter baumannii, A. baumannii KUB No. 5715, AR Bank #282, OXA-23, OXA-66) was 64 µg/mL (≈ 124 µM). It also gave an MIC ([2]; Acinetobacter baumannii, A. baumannii KUB No. 5716, AR Bank #283, OXA-23, OXA-66) of 32 µg/mL (≈ 62.1 µM), an MIC ([2]; Acinetobacter baumannii, A. baumannii KUB No. 5717, AR Bank #284, OXA-24, OXA-65) of 16 µg/mL (≈ 31 µM) and an MIC ([2]; Acinetobacter baumannii, A. baumannii KUB No. 5718, AR Bank #285, OXA-24, OXA-65) of 32 µg/mL (≈ 62.1 µM). It also gave an MIC ([2]; Acinetobacter baumannii, KUB No. 5719, AR Bank #286) of 32 µg/mL (≈ 62.1 µM), an MIC ([2]; Acinetobacter baumannii, KUB No. 5720, AR Bank #287) of 32 µg/mL (≈ 62.1 µM) and an MIC ([2]; Acinetobacter baumannii, KUB No. 5721, AR Bank #288) of 64 µg/mL (≈ 124 µM). For the same compound, the MIC ([2]; Acinetobacter baumannii, KUB No. 5722, AR Bank #259) was 8 µg/mL (≈ 15.5 µM), the MIC ([2]; Acinetobacter baumannii, KUB No. 5723, AR Bank #290) was over 64 µg/mL and the MIC ([2]; Acinetobacter baumannii, KUB No. 5724, AR Bank #291) was 32 µg/mL (≈ 62.1 µM). It also gave an MIC ([2]; Acinetobacter baumannii, KUB No. 5725, AR Bank #292) of 16 µg/mL (≈ 31 µM), an MIC ([2]; Acinetobacter baumannii, KUB No. 5726, AR Bank #293) of 16 µg/mL (≈ 31 µM) and an MIC ([2]; Acinetobacter baumannii, KUB No. 5727, AR Bank #294) of over 64 µg/mL. The MIC ([2]; Acinetobacter baumannii, KUB No. 5728, AR Bank #295) was 64 µg/mL (≈ 124 µM), the MIC ([2]; Acinetobacter baumannii, KUB No. 5729, AR Bank #296) was over 64 µg/mL and the MIC ([2]; Acinetobacter baumannii, KUB No. 5730, AR Bank #297) was 64 µg/mL (≈ 124 µM). For the same compound, the MIC ([2]; Acinetobacter baumannii, KUB No. 5731, AR Bank #298) was 16 µg/mL (≈ 31 µM), the MIC ([2]; Acinetobacter baumannii, KUB No. 5732, AR Bank #299) was over 64 µg/mL and the MIC ([2]; Acinetobacter baumannii, KUB No. 5733, AR Bank #300) was 8 µg/mL (≈ 15.5 µM). The MIC ([2]; Acinetobacter baumannii, KUB No. 5734, AR Bank #301) was over 64 µg/mL, the MIC ([2]; Acinetobacter baumannii, KUB No. 5735, AR Bank #302) was over 64 µg/mL and the MIC ([2]; Acinetobacter baumannii, KUB No. 5736, AR Bank #303) was 32 µg/mL (≈ 62.1 µM). The MIC ([2]; Acinetobacter baumannii, KUB No. 5737, AR Bank #304) was 8 µg/mL (≈ 15.5 µM), the MIC ([2]; Acinetobacter baumannii, KUB No. 5738, AR Bank #305) was 16 µg/mL (≈ 31 µM) and the MIC ([2]; Acinetobacter baumannii, KUB No. 5739, AR Bank #306) was 64 µg/mL (≈ 124 µM). For the same compound, the MIC ([2]; Acinetobacter baumannii, KUB No. 5740, AR Bank #307) was 16 µg/mL (≈ 31 µM), the MIC ([2]; Acinetobacter baumannii, KUB No. 5741, AR Bank #308) was 4 µg/mL (≈ 7.76 µM) and the MIC ([2]; Acinetobacter baumannii, KUB No. 5742, AR Bank #309) was 64 µg/mL (≈ 124 µM). It also gave an MIC ([2]; Acinetobacter baumannii, KUB No. 5743, AR Bank #310) of 64 µg/mL (≈ 124 µM), an MIC ([2]; Acinetobacter baumannii, KUB No. 5744, AR Bank #311) of over 64 µg/mL and an MIC ([2]; Acinetobacter baumannii, KUB No. 5745, AR Bank #312) of 16 µg/mL (≈ 31 µM). For the same compound, the MIC ([2]; Acinetobacter baumannii, KUB No. 5746, AR Bank #313) was 64 µg/mL (≈ 124 µM), the MIC50 ([2]; Acinetobacter baumannii, 55 isolates of A. baumannii, read-out: MIC50) was 64 µg/mL (≈ 124 µM) and the MIC80 ([2]; Acinetobacter baumannii, 55 isolates of A. baumannii, read-out: MIC80) was over 64 µg/mL. For the same compound, the MIC90 ([2]; Acinetobacter baumannii, 55 isolates of A. baumannii, read-out: MIC90) was over 64 µg/mL and the “Number of isolates at MIC >64 µg/mL” value ([2]; MIC distribution, metallo-β-lactamase-producing A. baumannii, inhibitor µg/mL in parentheses) was 4.
